Source: patent publication US10899738B2 (THE REGENTS OF THE UNIVERSITY OF MICHIGAN, priority 2016, dated 2021)
Read-outs that look alike come from different tables or passages of the source.

Legend:
menin protein = menin protein (Homo sapiens (Human), UniProt O00255); assay: biochemical; format: binding; details: FP competitive binding; menin protein 4 nM, FAM-MM2 probe 2 nM; read-out: Menin Binding Affinity IC50
Method in brief: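 Test compounds displaced FAM-MM2 (2 nM) from 4 nM menin after 30 min equilibration at room temperature in PBS buffer containing bovine γ-globulin, 4% DMSO and Triton X-100. Binding was followed by fluorescence polarization. Competition curves were fitted by nonlinear regression to give IC50 and Ki.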

[1] = Cell growth inhibition, CellTiter-Glo Luminescent Cell Viability Assay; format: cell-based
Method in brief: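 Cells seeded at 2,000/well with serially diluted compound and cultured 4 days at 37 °C, 5% CO2. Viability read by CellTiter-Glo luminescence; IC50 derived from dose-response.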

[2] = MOLM-13, 96 h, read-out: Cell Growth Inhibition IC50 (μM) MOLM13, MOLM13 cells, 4 days, CellTiter-Glo
[3] = MV4-11, 96 h, read-out: Cell Growth Inhibition IC50 (μM) MV4, 11, MV4, 11 cells, 4 days, CellTiter-Glo
[4] = MOLM-13, 96 h, MOLM13 cells, 4 days, CellTiter-Glo, read-out: Cell Growth Inhibition IC50 (μM) MOLM13
[5] = MV4-11, 96 h, MV4, 11 cells, 4 days, CellTiter-Glo, read-out: Cell Growth Inhibition IC50 (μM) MV4, 11

Chain of menin protein (O00255 whole entry): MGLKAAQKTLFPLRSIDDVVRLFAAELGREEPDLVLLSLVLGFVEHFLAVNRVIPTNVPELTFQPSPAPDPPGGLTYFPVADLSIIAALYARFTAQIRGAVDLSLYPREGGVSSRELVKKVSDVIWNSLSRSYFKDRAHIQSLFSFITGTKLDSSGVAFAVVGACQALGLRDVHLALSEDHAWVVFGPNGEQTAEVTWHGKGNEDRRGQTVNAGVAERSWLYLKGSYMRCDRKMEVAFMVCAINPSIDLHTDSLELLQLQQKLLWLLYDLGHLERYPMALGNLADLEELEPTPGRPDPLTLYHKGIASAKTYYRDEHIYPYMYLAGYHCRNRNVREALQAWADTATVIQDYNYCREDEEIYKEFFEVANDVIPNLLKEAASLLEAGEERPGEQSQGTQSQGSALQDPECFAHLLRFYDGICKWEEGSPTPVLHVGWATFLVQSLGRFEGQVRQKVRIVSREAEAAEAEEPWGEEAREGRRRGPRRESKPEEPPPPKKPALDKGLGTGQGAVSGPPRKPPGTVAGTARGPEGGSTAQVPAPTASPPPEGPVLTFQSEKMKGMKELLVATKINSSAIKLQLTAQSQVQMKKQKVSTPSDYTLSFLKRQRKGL

**Q.** For COC(=O)N[C@H]1CCC[C@@H]1C(C#N)(c1ccccc1)C1CCN(CC2CN(c3ccc(S(=O)(=O)c4ccc(C(N)=O)cc4)cc3)C2)CC1 (mixture of isomers) [compound 399, methyl rac-((1S,2R)-2-((1-((1-(4-((4-carbamoylphenyl)sulfonyl)phenyl)azetidin-3-yl)methyl)piperidin-4-yl)(cyano)(phenyl)methyl)cyclopentyl)carbamate], which IC50 (menin protein) is on record?
**A.** Its IC50 is 0.007 µM.

**Q.** And the IC50 [1, 2]?
**A.** Its IC50 is 1.63 µM.

**Q.** What about the IC50 [1, 3] of the same compound?
**A.** Its IC50 is 0.11 µM.

**Q.** For COC(=O)N[C@H]1CCC[C@@H]1C(C#N)(c1ccccc1)C1CCN(CCC#Cc2ccc(C#N)cc2)CC1 (mixture of isomers) [compound 404, methyl rac-((1S,2R)-2-(cyano(1-(4-(4-cyanophenyl)but-3-yn-1-yl)piperidin-4-yl)(phenyl)methyl)cyclopentyl) carbamate], which IC50 (menin protein) is on record?
**A.** The IC50 was 0.212 µM.

**Q.** What about the IC50 [1, 2] of the same compound?
**A.** Its IC50 is greater than 10 µM.

**Q.** What about the IC50 [1, 3] of the same compound?
**A.** Its IC50 is greater than 10 µM.

**Q.** What does the source list for CNC(=O)O[C@H]1CCC[C@@H]1C(Cn1ccnc1C)(c1ccccc1)C1CCN(CC2CN(c3ccc(C#N)cc3)C2)CC1 (mixture of isomers) [compound 406, rac-(1S,2R)-2-(1-(1-((1-(4-cyanophenyl)azetidin-3-yl)methyl)piperidin-4-yl)-2-(2-methyl-1H-imidazol-1-yl)-1-phenylethyl)cyclopentyl methylcarbamate]?
**A.** IC50 (menin protein): 0.003 µM; IC50 [1, 2]: 0.009 ± 0.0004 µM; IC50 [1, 3]: 0.004 ± 0.002 µM

**Q.** Which IC50 (menin protein) does the source give for CNC(=O)O[C@H]1CCC[C@@H]1C(Cn1ccnc1)(c1ccccc1)C1CCN(CC2CN(c3ccc(Cl)cc3)C2)CC1 (mixture of isomers) [compound 407, rac-(1S,2R)-2-(1-(1-((1-(4-chlorophenyl)azetidin-3-yl)methyl)piperidin-4-yl)-2-(1H-imidazol-1-yl)-1-phenylethyl)cyclopentyl methylcarbamate] here?
**A.** Its IC50 is 0.005 µM.

**Q.** What about the IC50 [1, 2] of the same compound?
**A.** Its IC50 is 0.69 ± 0.089 µM.

**Q.** What about the IC50 [1, 3] of the same compound?
**A.** The IC50 was 0.41 ± 0.28 µM.

**Q.** With CCc1nccn1CC(c1ccccc1)(C1CCN(CC2CN(c3ccc(C#N)cc3)C2)CC1)[C@H]1CCC[C@@H]1OC(=O)NC (mixture of isomers) [compound 408, rac-(1S,2R)-2-(1-(1-((1-(4-cyanophenyl)azetidin-3-yl)methyl)piperidin-4-yl)-2-(2-ethyl-1H-imidazol-1-yl)-1-phenylethyl)cyclopentyl methylcarbamate] as the compound, how does the IC50 (menin protein) read?
**A.** The IC50 was 0.003 µM.

**Q.** And the IC50 [1, 2]?
**A.** Its IC50 is 0.017 ± 0.007 µM.

**Q.** And the IC50 [1, 3]?
**A.** The IC50 was 0.005 ± 0.002 µM.

**Q.** For CCc1nccn1CC(c1ccccc1)(C1CCN(CC2CN(c3ccc(C#N)cc3)C2)CC1)[C@@H]1CCC[C@H]1OC(=O)NC (mixture of isomers) [compound 409, rac-(1R,2S)-2-(1-(1-((1-(4-cyanophenyl)azetidin-3-yl)methyl)piperidin-4-yl)-2-(2-ethyl-1H-imidazol-1-yl)-1-phenylethyl)cyclopentyl methylcarbamate], which IC50 (menin protein) is on record?
**A.** The IC50 was 0.116 µM.

**Q.** And the IC50 [1, 2]?
**A.** Its IC50 is 1.6 µM.

**Q.** What about the IC50 [1, 3] of the same compound?
**A.** The IC50 was 1.7 µM.

**Q.** With CNC(=O)O[C@@H]1CCC[C@H]1C(Cn1ccnc1C)(c1cccc(F)c1)C1CCN(CC2CN(c3ccc(S(=O)(=O)c4cnn(C)c4)cc3)C2)CC1 (mixture of isomers) [compound 410, rac-(1R,2S)-2-(1-(3-fluorophenyl)-2-(2-methyl-1H-imidazol-1-yl)-1-(1-((1-(4-((1-methyl-1H-pyrazol-4-yl)sulfonyl)phenyl)azetidin-3-yl)methyl)piperidin-4-yl)ethyl)cyclopentyl methylcarbamate] as the compound, how does the IC50 (menin protein) read?
**A.** Its IC50 is 0.049 µM.

**Q.** And the IC50 [1, 2]?
**A.** The IC50 was 3.1 µM.

**Q.** And the IC50 [1, 3]?
**A.** The IC50 was 2.7 µM.

**Q.** What does the source list for CNC(=O)O[C@H]1CCC[C@@H]1C(Cn1ccnc1C)(c1cccc(F)c1)C1CCN(CC2CN(c3ccc(S(=O)(=O)c4cnn(C)c4)cc3)C2)CC1 (mixture of isomers) [compound 411, rac-(1S,2R)-2-(1-(3-fluorophenyl)-2-(2-methyl-1H-imidazol-1-yl)-1-(1-((1-(4-((1-methyl-1H-pyrazol-4-yl)sulfonyl)phenyl)azetidin-3-yl)methyl)piperidin-4-3-yl)ethyl)cyclopentyl methylcarbamate]?
**A.** IC50 (menin protein): 0.003 µM; IC50 [1, 2]: 0.016 µM; IC50 [1, 3]: 0.003 µM

**Q.** Which IC50 (menin protein) does the source give for CCN1Cc2ccccc2C(C2CCCC2)(C2CCN(CC3CN(c4ccc(S(=O)(=O)c5ccncc5)cc4)C3)CC2)C1 (stereo not drawn) [Cpd. No. 148, 4-cyclopentyl-2-ethyl-4-(1-((1-(4-(pyridin-4-ylsulfonyl)phenyl)azetidin-3-yl)methyl)piperidin-4-yl)-1,2,3,4-tetrahydroisoquinoline] here?
**A.** Its IC50 is 0.006 µM.

**Q.** What about the IC50 [1, 4] of the same compound?
**A.** The IC50 was 1.5 ± 0.9 µM.

**Q.** And the IC50 [1, 5]?
**A.** Its IC50 is 0.81 ± 0.364 µM.

**Q.** Which IC50 (menin protein) does the source give for N#Cc1ccc(OCCCN2CCC(C3(C4CCCC4)CNCc4ccccc43)CC2)cc1 (stereo not drawn) [compound 19, 4-(3-(4-(4-cyclopentyl-1,2,3,4-tetrahydroisoquinolin-4-yl)piperidin-1-yl)propoxy)benzonitrile] here?
**A.** Its IC50 is 0.061 µM.

**Q.** What about the IC50 [1, 2] of the same compound?
**A.** Its IC50 is 7.3 µM.

**Q.** And the IC50 [1, 3]?
**A.** Its IC50 is 1.6 ± 0.1 µM.

**Q.** Which IC50 (menin protein) does the source give for CN1Cc2ccccc2C(C2CCCC2)(C2CCN(CCCOc3ccc(C#N)cc3)CC2)C1 (stereo not drawn) [compound 23, 4-(3-(4-(4-cyclopentyl-2-methyl-1,2,3,4-tetrahydroisoquinolin-4-yl)piperidin-1-yl)propoxy)benzonitrile] here?
**A.** The IC50 was 0.054 µM.

**Q.** What about the IC50 [1, 2] of the same compound?
**A.** Its IC50 is 5 µM.

**Q.** And the IC50 [1, 3]?
**A.** The IC50 was 1 ± 0.4 µM.

**Q.** With N#Cc1ccc(N2CC(CN3CCC(C4(C5CCCC5)CNCc5ccccc54)CC3)C2)cc1 (stereo not drawn) [compound 43, 4-(3-((4-(4-cyclopentyl-1,2,3,4-tetrahydroisoquinolin-4-yl)piperidin-1-yl)methyl)azetidin-1-yl)benzonitrile] as the compound, how does the IC50 (menin protein) read?
**A.** Its IC50 is 0.026 µM.

**Q.** What about the IC50 [1, 4] of the same compound?
**A.** Its IC50 is 2.1 µM.

**Q.** What about the IC50 [1, 5] of the same compound?
**A.** Its IC50 is 0.896 ± 0.056 µM.

**Q.** Which IC50 (menin protein) does the source give for CN1Cc2ccccc2C(C2CCCC2)(C2CCN(CC3CN(c4ccc(C#N)cc4)C3)CC2)C1 (stereo not drawn) [compound 45, 4-(3-((4-(4-cyclopentyl-2-methyl-1,2,3,4-tetrahydroisoquinolin-4-yl)piperidin-1-yl)methyl)azetidin-1-yl)benzonitrile] here?
**A.** Its IC50 is 0.027 µM.

**Q.** What about the IC50 [1, 4] of the same compound?
**A.** The IC50 was 5 µM.

**Q.** What about the IC50 [1, 5] of the same compound?
**A.** Its IC50 is 0.845 ± 0.436 µM.

**Q.** With CCN1Cc2ccccc2C(C2CCCC2)(C2CCN(CC3CN(c4ccc(C#N)cc4)C3)CC2)C1 (stereo not drawn) [compound 46, 4-(3-((4-(4-cyclopentyl-2-ethyl-1,2,3,4-tetrahydroisoquinolin-4-yl)piperidin-1-yl)methyl)azetidin-1-yl)benzonitrile] as the compound, how does the IC50 (menin protein) read?
**A.** Its IC50 is 0.023 µM.

**Q.** What about the IC50 [1, 4] of the same compound?
**A.** Its IC50 is 5.1 ± 0.2 µM.

**Q.** What about the IC50 [1, 5] of the same compound?
**A.** The IC50 was 0.972 ± 0.558 µM.

**Q.** What does the source list for CC(C)N1Cc2ccccc2C(C2CCCC2)(C2CCN(CC3CN(c4ccc(S(=O)(=O)c5ccncc5)cc4)C3)CC2)C1 (stereo not drawn) [compound 48, 4-cyclopentyl-2-isopropyl-4-(1-((1-(4-(pyridin-4-ylsulfonyl)phenyl)azetidin-3-yl)methyl)piperidin-4-yl)-1,2,3,4-tetrahydroisoquinoline]?
**A.** IC50 (menin protein): 0.007 µM; IC50 [1, 4]: 2.8 µM; IC50 [1, 5]: 0.908 µM

**Q.** With O=S(=O)(c1ccncc1)c1ccc(N2CC(CN3CCC(C4(C5CCCC5)CN(C5CCC5)Cc5ccccc54)CC3)C2)cc1 (stereo not drawn) [compound 49, 2-cyclobutyl-4-cyclopentyl-4-(1-((1-(4-(pyridin-4-ylsulfonyl)phenyl)azetidin-3-yl)methyl)piperidin-4-yl)-1,2,3,4-tetrahydroisoquinoline] as the compound, how does the IC50 (menin protein) read?
**A.** Its IC50 is 0.009 µM.

**Q.** And the IC50 [1, 4]?
**A.** Its IC50 is 4 µM.

**Q.** What about the IC50 [1, 5] of the same compound?
**A.** Its IC50 is 0.898 µM.

**Q.** For O=S(=O)(c1ccncc1)c1ccc(N2CC(CN3CCC(C4(C5CCCC5)CNCc5ccccc54)CC3)C2)cc1 (stereo not drawn) [compound 51, 4-cyclopentyl-4-(1-((1-(4-(pyridin-4-ylsulfonyl)phenyl)azetidin-3-yl)methyl)piperidin-4-yl)-1,2,3,4-tetrahydroisoquinoline], which IC50 (menin protein) is on record?
**A.** The IC50 was 0.008 µM.

**Q.** And the IC50 [1, 4]?
**A.** Its IC50 is 1.46 µM.

**Q.** And the IC50 [1, 5]?
**A.** The IC50 was 0.67 µM.
